Results reported in patent US6528251B2, “Method of managing the chemotherapy of patients who are HIV positive based on the phenotypic drug sensitivity of human HIV strains” (Virco N.V., priority 1996, dated 2003).
Read-outs that look alike come from different tables or passages of the source.

What was measured:
Assay type in all cases: cell-based, HIV-1
[1] = system: recombinant virus from patient viral RNA (Example 5, 3TC resistant HIV strains); assay: Recombinant virus assay (MT4/MTT), patient of Example 5 (AZT, then AZT+3TC therapy); conditions: for IC50: Human immunodeficiency virus 1, Table 1, Example 5 patient virus; for ratio (1)/(2): Table 1, patient mean IC50 / recIIIB IC50, Example 5
Description: (§1) RNA was isolated from 100 μl of plasma according to the method described by Boom, R. et al. (1990, supra), and was reverse transcribed with the GeneAmp reverse transcriptase kit (Perkin Elmer) as described by the manufacturer and using an HIV-1 specific downstream primer (OUT3: 5′-CATTGCTCTCCAATTACTGTGATATTTCTCATC-3′; SEQ ID NO: 1). PCR on reverse transcribed RNA was performed with inner and outer primers as described by Kellam, P. and Larder, B. A. (1994, supra). After chloroform extraction and centrifugation on Centricon 100 columns or centrifugation on anion-exchange spin columns (Quiagen), the isolated PCR product was ready for use in the transfection reactions.
(§2) MT4 cells were subcultured at a density of 250,000 cells/ml before transfection (exponential growth phase). Cells were pelleted and resuspended in phosphate buffered saline (PBS) at a concentration of […]. A 0.8 ml portion (2.5 10E6 cells/ml) was used for each transfection. Transfection was performed with the Bio-Rad Gene pulser making use of 0.4 cm electrode cuvettes. Cells were electroporated in the presence of […] of linearised pHIVΔRT plasmid and approximately 5 μg of RT PCR product at 250SF and 300 V, followed by a 30-min incubation at room temperature. Subsequently, 10 ml of fresh culture medium was added to the cell suspension and incubation was performed at 37° C. in a humidified atmosphere of 5% CO2.
(§3) During 7 to 10 days following the transfection, cells were monitored for the appearance of cytopathogenic effect (CPE). In the absence thereof, cells were subcultured in different flasks. Subsequently, culture supernatants of transfected cells were used to create a stock of recombinant virus and stored in 1.5 ml aliquots at −70° C.
(§4) After titration of the new viruses, the stocks were used for antiviral experiments in the presence of serial dilutions of different HIV inhibitors. Titres of the harvested supematants were determined by limited serial dilution titration of virus in MT4 cells.
(§5) Viruses with a useful titre were used in antiviral experiments. For this purpose, 96-well microtitre plates were filled with 100μl of complete culture medium. Subsequently, stock solutions of compounds were added in 25 μl volumes to series of duplicate wells. HIV- and mock-infected cell samples were included for each drug (or drug combination). Exponentially growing MT4 cells were then transferred to the microtitre plates at a density of 150,000 cells/ml. The cell cultures were then incubated at 37° C. in a humidified atmosphere of 5% CO2. Five days after infection, the viability of the mock- and HIV-infected cells was examined spectrophotometrically by the M1T method (Pauwels, R. et al. J. Virol. Meth. (1988), 20: 309-321) as described in Section 6 below.
(§6) To each well of the microtiter plates, 20 μl of a solution of MTT (7.5 mg/ml in PBS) was added. The plates were further incubated at 37° C. for 1 h. Then, 150 μl of medium was removed without disturbing the MT4 cell clusters containing the formazan crystals. Solubilization of the formazan crystals was achieved by adding 100 μl 5% Triton X-100 in acidified isopropanol (5 ml concentrated HCl per liter solvent). Complete dissolution of the formazan crystals was obtained after the plates had been placed on a plate shaker for 10 min. Finally the absorbances were read at two wavelengths (540 and 690 nm). From these optical density (OD) data, 50% inhibitory (IC50) and 50% cytotoxic (CC50) concentrations were derived.
An HIV infected patient who received AZT from December 1989 until an undocumented later date, and switched to a combined chemotherapy of AZT+3TC (1:1) from February 1994 until October 1995 donated plasma whose susceptibility to a number of RT inhibitors was determined according to the above described protocol of Example 1. Recombinant wild type HIV strain recIIIB was used in said protocol as a reference HIV virus.

[2] = system: recombinant virus from patient viral RNA (Example 9); assay: Recombinant virus assay (MT4/MTT), patient of Example 9 (multiple nucleoside analogue RT-inhibitors); conditions: for IC50: Human immunodeficiency virus 1, Table 5, Example 9 patient virus; for ratio (1)/(2): Table 5, patient mean IC50 / recIIIB IC50, Example 9
Description: as §1, §2, §3, §4, §5, §6
An HIV-infected patient with a therapy history including multiple nucleoside analogue RT-inhibitors donated plasma whose susceptibility to a number of RT inhibitors was determined according to the protocol set out in Example 1. Recombinant wild type HIV strain recIIIB was used as a reference HIV virus.

[3] = system: recombinant virus from patient viral RNA (Example 6, drug-naive patient); assay: Recombinant virus assay (MT4/MTT), drug-naive patient of Example 6; conditions: for IC50: Human immunodeficiency virus 1, Table 2, Example 6 patient virus; for ratio (1)/(2): Table 2, patient mean IC50 / recIIIB IC50, Example 6
Description: as §1, §2, §3, §4, §5, §6
A drug-naive HIV infected patient donated plasma whose susceptibility to a number of RT inhibitors was determined according to the above described protocol of Example 1. Recombinant wild type HIV strain recIIIB was used in said protocol as a reference HIV virus.

[4] = system: recombinant virus from patient viral RNA (Example 8); assay: Recombinant virus assay (MT4/MTT), patient of Example 8 (therapy history AZT, 3TC and loviride); conditions: for IC50: Human immunodeficiency virus 1, Table 4, Example 8 patient virus; for ratio (1)/(2): Table 4, patient mean IC50 / recIIIB IC50, Example 8
Description: as §1, §2, §3, §4, §5, §6
An HIV-infected patient with a therapy history including AZT, 3TC and loviride donated plasma whose susceptibility to a number of RT inhibitors was determined according to the protocol set out in Example 1. Recombinant wild type HIV strain recIIIB was used as a reference HIV virus.

[5] = system: recombinant virus from patient viral RNA (Example 7, drug-naive patient); assay: Recombinant virus assay (MT4/MTT), drug-naive patient of Example 7; conditions: for IC50: Human immunodeficiency virus 1, Table 3, Example 7 patient virus; for ratio (1)/(2): Table 3, patient mean IC50 / recIIIB IC50, Example 7
Description: as §1, §2, §3, §4, §5, §6
A drug-naive HIV-infected patient donated plasma whose susceptibility to a number of RT inhibitors was determined according to the protocol set out in Example 1. Recombinant wild type HIV strain recIIIB was used as a reference HIV virus.

[6] = system: Recombinant wild type HIV strain recIIIB; assay: Antiviral MT4/MTT assay with reference virus recIIIB; conditions: read-out: Anti-HIV-1 activity IC50 (μM) recIIIB ref (2)
[7] = MT4 cells, read-out: Anti-HIV-1 activity IC50 (μM) Exp. 1
[8] = MT4 cells, read-out: Anti-HIV-1 activity IC50 (μM) Exp. 2
[9] = mean of Exp. 1 and 2, read-out: Anti-HIV-1 activity IC50 (μM) Mean (1)
[10] = mean, read-out: Anti-HIV-1 activity IC50 (μM) Mean (1)
[11] = Human immunodeficiency virus 1, Table 1, reference run of Example 5
[12] = Human immunodeficiency virus 1, Table 2, reference run of Example 6
[13] = Human immunodeficiency virus 1, Table 3, reference run of Example 7
[14] = Human immunodeficiency virus 1, Table 4, reference run of Example 8
[15] = Human immunodeficiency virus 1, Table 5, reference run of Example 9

SMILES	IC50 [1, 7] [µM]	IC50 [1, 8] [µM]	IC50 [1, 9] [µM]	ratio (1)/(2) [1]	IC50 [2, 7] [µM]	IC50 [2, 10] [µM]	ratio (1)/(2) [2]	IC50 [3, 7] [µM]	IC50 [3, 8] [µM]	IC50 [3, 9] [µM]	ratio (1)/(2) [3]	IC50 [4, 7] [µM]	IC50 [4, 8] [µM]	IC50 [4, 10] [µM]	ratio (1)/(2) [4]	IC50 [5, 7] [µM]	IC50 [5, 8] [µM]	IC50 [5, 10] [µM]	ratio (1)/(2) [5]	IC50 [6, 11] [µM]	further results
O=c1[nH]cnc2c1ncn2[C@H]1CC[C@@H](CO)O1 [ddI, didanosinen]	2	0.8	1.4	0.5	> 100	> 100	>21	3.07	4.47	3.77	0.4	26.9	15.4	21.1	13	0.475	0.429	0.452	0.7	2.83	IC50 [2, 8]: > 100 µM; IC50 [6, 12]: 8.58 µM; IC50 [6, 13]: 0.648 µM; IC50 [6, 14]: 1.59 µM; IC50 [6, 15]: 4.76 µM
Cc1cn([C@H]2C[C@H](N=[N+]=[N-])[C@@H](CO)O2)c(=O)[nH]c1=O [AZT, zidovudine]	0.001	0.002	0.002	0.4	> 100	> 100	>344	0.04	0.05	0.05	1	18.3	22.3	20.3	241	0.052	0.05	0.051	2	0.004	IC50 [6, 12]: 0.06 µM; IC50 [6, 13]: 0.023 µM; IC50 [6, 14]: 0.084 µM; IC50 [6, 15]: 0.291 µM; IC50 ([6]; Human immunodeficiency virus 1, Table 6, reference run of Example 10): 0.041 µM; IC50 ([6]; Human immunodeficiency virus 1, Table 7, reference run of Example 11): 0.047 µM; IC50 ([6]; Human immunodeficiency virus 1, Table 8, reference run of Example 12): 0.041 µM
